Legend:
CDK2-cycline E = CDK2-cycline E (Homo sapiens, UniProt P24941); experiment: Kinase assay (radioactive phosphate incorporation), CDK2-cyclin E; format: biochemical; conditions: read-out: Kinase Inhibition pIC50 CDK2-cycline E (converted)
Outline: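 Each recombinant kinase was combined with its polypeptide substrate in pH 7.4 assay buffer. Mg/ATP mix carrying [γ-32P]-ATP (100 μM ATP) was then added and the plate incubated at 30° C. After stopping on ice, the reaction was filtered, washed with 75 mM orthophosphoric acid, dried and counted.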

Aurora A kinase = target: T1, Aurora A kinase (Homo sapiens, UniProt O14965); experiment: Aurora-A (human) kinase assay (Kemptide substrate); format: biochemical; conditions: pIC50 is -log(IC50, M); 15 μM ATP; read-out: Kinase Inhibition pIC50 Aurora A kinase (converted)
T1 construct: purchased
T1 sequence (O14965 1-403): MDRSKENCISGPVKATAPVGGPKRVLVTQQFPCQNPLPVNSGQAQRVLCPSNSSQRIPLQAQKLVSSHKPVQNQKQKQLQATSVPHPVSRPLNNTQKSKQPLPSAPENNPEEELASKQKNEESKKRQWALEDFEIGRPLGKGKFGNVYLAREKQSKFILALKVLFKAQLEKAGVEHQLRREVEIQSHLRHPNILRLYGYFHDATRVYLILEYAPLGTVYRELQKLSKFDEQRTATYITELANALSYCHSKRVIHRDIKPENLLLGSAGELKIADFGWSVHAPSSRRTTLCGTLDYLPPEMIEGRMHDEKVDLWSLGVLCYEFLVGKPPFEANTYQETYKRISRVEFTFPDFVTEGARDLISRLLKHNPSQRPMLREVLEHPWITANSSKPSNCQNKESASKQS
Outline: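 Kemptide (LRRASLG, 200 μM) phosphorylation by 5-10 ng commercial aurora-A measured as [γ-33P] incorporation at 15 μM ATP with 10 mM Mg acetate, pH 7.0 MOPS buffer. Reaction ran 40 min at room temperature; acid-stopped, captured on P81 filters, scintillation read.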

CDK9/cyclin T1 = CDK9/cyclin T1 (Homo sapiens, UniProt P50750); experiment: CDK 9 assay (CTD peptide substrate); format: biochemical; conditions: read-out: Kinase Inhibition pIC50 CDK9-cyclin T1 (converted)
Chain of CDK9/cyclin T1 (P50750 whole entry): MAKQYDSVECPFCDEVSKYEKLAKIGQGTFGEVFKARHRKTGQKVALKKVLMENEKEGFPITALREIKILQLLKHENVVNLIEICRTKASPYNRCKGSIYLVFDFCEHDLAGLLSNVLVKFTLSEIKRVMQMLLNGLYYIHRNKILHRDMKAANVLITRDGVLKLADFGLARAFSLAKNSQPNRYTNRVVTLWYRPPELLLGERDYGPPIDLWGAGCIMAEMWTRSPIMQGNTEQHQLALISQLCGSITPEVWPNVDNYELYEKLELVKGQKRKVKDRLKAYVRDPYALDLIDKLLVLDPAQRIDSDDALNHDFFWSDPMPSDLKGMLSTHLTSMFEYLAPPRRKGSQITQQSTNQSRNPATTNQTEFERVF
Chain of CDK9/cyclin T1 (O60563 whole entry partner): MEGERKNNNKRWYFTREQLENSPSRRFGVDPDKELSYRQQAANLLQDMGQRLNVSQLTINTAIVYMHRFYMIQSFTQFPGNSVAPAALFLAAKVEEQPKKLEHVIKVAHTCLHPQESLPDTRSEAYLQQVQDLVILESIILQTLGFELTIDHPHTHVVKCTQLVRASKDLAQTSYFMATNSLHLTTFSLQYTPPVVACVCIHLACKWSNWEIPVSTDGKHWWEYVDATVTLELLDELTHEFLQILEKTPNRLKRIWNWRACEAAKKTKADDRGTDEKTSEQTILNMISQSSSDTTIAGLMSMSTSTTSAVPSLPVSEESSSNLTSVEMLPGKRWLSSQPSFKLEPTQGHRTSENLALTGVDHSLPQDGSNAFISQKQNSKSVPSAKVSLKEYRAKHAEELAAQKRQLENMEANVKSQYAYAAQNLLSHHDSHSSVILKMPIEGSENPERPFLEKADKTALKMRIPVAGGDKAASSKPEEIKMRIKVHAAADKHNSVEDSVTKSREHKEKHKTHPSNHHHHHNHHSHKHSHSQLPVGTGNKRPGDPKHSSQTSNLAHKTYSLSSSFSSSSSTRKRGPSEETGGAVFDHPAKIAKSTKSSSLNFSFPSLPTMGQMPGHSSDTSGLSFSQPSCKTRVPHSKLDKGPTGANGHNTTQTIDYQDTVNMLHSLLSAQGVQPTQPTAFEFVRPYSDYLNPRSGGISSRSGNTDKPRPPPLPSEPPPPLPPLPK
Outline: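 Inhibition measured against recombinant human kinase/cyclin complex phosphorylating biotin-(Tyr-Ser-Pro-Thr-Ser-Pro-Ser)4 peptide, 100 μM radiolabelled ATP, 45 min at 30° C. Product quantified by filter capture and scintillation counting.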

SMILES	IC50 (CDK2-cycline E)	melting point	IC50 (Aurora A kinase)	IC50 (CDK9/cyclin T1)
Cc1nc(C)c(-c2ccnc(Nc3cccc(CN)c3)n2)s1 [Compound 90, (3-Aminomethyl-phenyl)-[4-(2,4-dimethyl-thiazol-5-yl)-pyrimidin-2-yl]-amine]	0.398 µM	183 to 184 °C		
CC(=O)NCc1cccc(Nc2nccc(-c3sc(N(C)c4cc(Cl)cc(Cl)c4)nc3C)n2)c1 [Compound 125, N-[3-(4-{2-[(3,5-Dichloro-phenyl)-methyl-amino]-4-methyl-thiazol-5-yl}-pyrimidin-2-ylamino)-benzyl]-acetamide]		213 to 214 °C	2.51 µM	
Cc1nc(-c2cccnc2)sc1-c1ccnc(Nc2cc(Cl)c(N3CCOCC3)c(Cl)c2)n1 [Compound 126, (3,5-Dichloro-4-morpholin-4-yl-phenyl)-[4-(4-methyl-2-pyridin-3-yl-thiazol-5-yl)-pyrimidin-2-yl]-amine]		276 to 278 °C	0.251 µM	
Cc1nc(N(C)c2cc(Cl)cc(Cl)c2)sc1-c1ccnc(Nc2ccc(N3CCOCC3)c(Cl)c2)n1 [Compound 128, (3-Chloro-4-morpholin-4-yl-phenyl)-(4-{2-[(3,5-dichloro-phenyl)-methyl-amino]-4-methyl-thiazol-5-yl}-pyrimidin-2-yl)-amine]		224 to 225 °C	0.1 µM	
CC(=O)NCc1cccc(Nc2nccc(-c3sc(-c4cccs4)nc3C)n2)c1 [Compound 130, N-{3-[4-(4-Methyl-2-thiophen-2-yl-thiazol-5-yl)-pyrimidin-2-ylamino]-benzyl}-acetamide]	0.794 µM	223 to 225 °C	0.158 µM	
Cc1nc(-c2nc(C)c(-c3ccnc(Nc4ccc(N5CCOCC5)cc4)n3)s2)cs1 [Compound 135, [4-(4,2′-Dimethyl-[2,4′]bithiazolyl-5-yl)-pyrimidin-2-yl]-(4-morpholin-4-yl-phenyl)-amine]		262 to 263 °C	1.26 µM	
CC(=O)N1CCN(c2ccc(Nc3nccc(-c4sc(-c5ccc(N6CCOCC6)cc5)nc4C)n3)cc2)CC1 [Compound 148, 1-[4-(4-{4-[4-Methyl-2-(4-morpholin-4-yl-phenyl)-thiazol-5-yl]-pyrimidin-2-ylamino}-phenyl)-piperazin-1-yl]-ethanone]		250 to 252 °C	0.316 µM	
CCNc1nc(C)c(-c2ccnc(Nc3ccc(N4CCOCC4)c(OC)c3)n2)s1 [Compound 157, [4-(2-Ethylamino-4-methyl-thiazol-5-yl)-pyrimidin-2-yl]-(3-methoxy-4-morpholin-4-yl-phenyl)-amine]	0.251 µM	224 to 226 °C	0.0251 µM	
Cc1nc(NCCc2ccccc2)sc1-c1ccnc(Nc2ccc(N3CCOCC3)cc2)n1 [Compound 158, [4-(4-Methyl-2-phenethylamino-thiazol-5-yl)-pyrimidin-2-yl]-(4-morpholin-4-yl-phenyl)-amine]	1 µM	226 to 228 °C	0.2 µM	
COc1cc(Nc2nccc(-c3sc(NCCc4ccccc4)nc3C)n2)cc(OC)c1 [Compound 159, (3,5-Dimethoxy-phenyl)-[4-(4-methyl-2-phenethylamino-thiazol-5-yl)-pyrimidin-2-yl]-amine]		201 to 202 °C	0.794 µM	
CCNc1nc(C)c(-c2ccnc(Nc3cc(OC)cc(OC)c3)n2)s1 [Compound 160, (3,5-Dimethoxy-phenyl)-[4-(2-ethylamino-4-methyl-thiazol-5-yl)-pyrimidin-2-yl]-amine]		235 to 237 °C	0.794 µM	
CC(=O)N1CCN(c2ccc(Nc3nccc(-c4sc(Nc5ccccc5)nc4C)n3)cc2)CC1 [Compound 172, 1-(4-{4-[4-(4-Methyl-2-phenylamino-thiazol-5-yl)-pyrimidin-2-ylamino]-phenyl}-piperazin-1-yl)-ethanone]		245 to 246 °C	0.251 µM	
Cc1nc(Nc2ccccc2)sc1-c1ccnc(Nc2ccc(N3CCN(Cc4ccccc4)CC3)cc2)n1 [Compound 176, [4-(4-Benzyl-piperazin-1-yl)-phenyl]-[4-(4-methyl-2-phenylamino-thiazol-5-yl)-pyrimidin-2-yl]-amine]		227 to 229 °C	6.31 µM	
Cc1nc(-c2cccnc2)sc1-c1ccnc(Nc2ccc3c(c2)OCO3)n1 [Compound 177, Benzo[1,3]dioxol-5-yl-[4-(4-methyl-2-pyridin-3-yl-thiazol-5-yl)-pyrimidin-2-yl]-amine]		187 to 188 °C	2 µM	
CCNc1nc(C)c(-c2ccnc(Nc3ccc4c(c3)OCO4)n2)s1 [Compound 178, Benzo[1,3]dioxol-5-yl-[4-(2-ethylamino-4-methyl-thiazol-5-yl)-pyrimidin-2-yl]-amine]	0.2 µM	194 to 195 °C	0.158 µM	
Cc1nc(N)sc1-c1ccnc(Nc2ccc3c(c2)OCO3)n1 [Compound 179, [4-(2-Amino-4-methyl-thiazol-5-yl)-pyrimidin-2-yl]-benzo[1,3]dioxol-5-yl-amine]	0.1 µM	211 to 213 °C	0.0794 µM	

Results, then the compound that gave them:

IC50 (CDK2-cycline E)	melting point	IC50 (Aurora A kinase)	IC50 (CDK9/cyclin T1)	SMILES
	212 to 214 °C	2 µM		Cc1nc(-c2cccnc2)sc1-c1ccnc(Nc2ccc(N3CCCC3)cc2)n1 [Compound 198, [4-(4-Methyl-2-pyridin-3-yl-thiazol-5-yl)-pyrimidin-2-yl]-(4-pyrrolidin-1-yl-phenyl)-amine]
	192 to 193 °C	0.631 µM		Cc1nc(C)c(-c2ccnc(Nc3ccc(N4CCCC4)cc3)n2)s1 [Compound 199, [4-(2,4-Dimethyl-thiazol-5-yl)-pyrimidin-2-yl]-(4-pyrrolidin-1-yl-phenyl)-amine]
1.58 µM	180 to 182 °C	0.0631 µM	1.58 µM	Cc1nc(N)sc1-c1ccnc(Nc2ccc(N3CCSCC3)cc2)n1 [Compound 201, [4-(2-Amino-4-methyl-thiazol-5-yl)-pyrimidin-2-yl]-(4-thiomorpholin-4-yl-phenyl)-amine]
5.01 µM	173 to 174 °C	0.158 µM		Cc1nc(C)c(-c2ccnc(Nc3ccc(N4CCSCC4)cc3)n2)s1 [Compound 202, [4-(2,4-Dimethyl-thiazol-5-yl)-pyrimidin-2-yl]-(4-thiomorpholin-4-yl-phenyl)-amine]
2 µM	207 to 209 °C	0.126 µM	3.16 µM	CCNc1nc(C)c(-c2ccnc(Nc3ccc(N4CCSCC4)cc3)n2)s1 [Compound 203, [4-(2-Ethylamino-4-methyl-thiazol-5-yl)-pyrimidin-2-yl]-(4-thiomorpholin-4-yl-phenyl)-amine]
	191 to 193 °C	0.501 µM		Cc1nc(-c2cccnc2)sc1-c1ccnc(Nc2ccc(N3CCSCC3)cc2)n1 [Compound 204, [4-(4-Methyl-2-pyridin-3-yl-thiazol-5-yl)-pyrimidin-2-yl]-(4-thiomorpholin-4-yl-phenyl)-amine]
	159 to 160 °C	0.398 µM		Cc1nc(C)c(-c2ccnc(Nc3ccc(N4CCCCC4)c(C)c3)n2)s1 [Compound 205, [4-(2,4-Dimethyl-thiazol-5-yl)-pyrimidin-2-yl]-(3-methyl-4-piperidin-1-yl-phenyl)-amine]
1.26 µM	221 to 223 °C	0.158 µM		Cc1cc(Nc2nccc(-c3sc(N)nc3C)n2)ccc1N1CCCCC1 [Compound 206, [4-(2-Amino-4-methyl-thiazol-5-yl)-pyrimidin-2-yl]-(3-methyl-4-piperidin-1-yl-phenyl)-amine]
	213 to 214 °C	0.501 µM		CCNc1nc(C)c(-c2ccnc(Nc3ccc(N4CCCCC4)c(C)c3)n2)s1 [Compound 207, [4-(2-Ethylamino-4-methyl-thiazol-5-yl)-pyrimidin-2-yl]-(3-methyl-4-piperidin-1-yl-phenyl)-amine]
	200 to 201 °C	1 µM		Cc1cc(Nc2nccc(-c3sc(-c4cccnc4)nc3C)n2)ccc1N1CCCCC1 [Compound 208, (3-Methyl-4-piperidin-1-yl-phenyl)-[4-(4-methyl-2-pyridin-3-yl-thiazol-5-yl)-pyrimidin-2-yl]-amine]
1.26 µM	256 to 257 °C	0.0631 µM	1.58 µM	Cc1cc(Nc2nccc(-c3sc(N)nc3C)n2)ccc1N1CCOCC1 [Compound 218, [4-(2-Amino-4-methyl-thiazol-5-yl)-pyrimidin-2-yl]-(3-methyl-4-morpholin-4-yl-phenyl)-amine]

— patent US20090137572A1, “2-substituted-4-heteroaryl-pyrimidines useful for the treatment of proliferative disorders” (priority 2004, published 2009)
